{"source": "patent US7276491B2", "about": "“Anticoagulant and fibrinolytic therapy using p38 MAP kinase inhibitors” (Boehringer Ingelheim Pharmaceuticals, Inc., priority 2002, dated 2007)", "tested_on": "LPS-induced activation of coagulation, fibrinolysis and the vascular endothelium", "experiment": "LPS study: randomized, double-blind, placebo-controlled human endotoxemia experiment", "type": "in vivo", "key": {"[1]": {"conditions": "healthy male volunteers, high dose (600 mg oral) 3 h before LPS 4 ng/kg i.v."}}}
{"smiles": "Cc1ccc(-n2nc(C(C)(C)C)cc2NC(=O)Nc2ccc(OCCN3CCOCC3)c3ccccc23)cc1", "note": "[formula (III), 1-[3-tert-butyl-1-p-tolyl-1H-pyrazol-5-yl]-3-[4-(2-morpholin-4-yl-ethoxy)naphthalen-1-yl]-urea]", "values": [{"measurement": "LPS-elicited increase in plasma levels of sE-selectin (endothelial cell activation)", "setting": "[1]", "result": "attenuated"}, {"measurement": "LPS-elicited increase in plasma levels of vWF (endothelial cell activation)", "setting": "[1]", "result": "attenuated"}, {"measurement": "LPS-induced coagulation activation (increase in plasma prothrombin fragment F1+2 concentrations)", "setting": "healthy male volunteers, high end dosing (600 mg oral) 3 h before LPS 4 ng/kg i.v., vs placebo", "result": "inhibited LPS-induced coagulation activation, both delaying and diminishing the increase in plasma F1+2 concentrations"}, {"measurement": "activation of the fibrinolytic system", "setting": "healthy male volunteers, oral dose 3 h before LPS 4 ng/kg i.v., tPA, PAI-1, PAPc assayed", "result": "even stronger inhibitory effect"}, {"measurement": "IL-6 concentrations", "setting": "subjects treated during low grade endotoxemia (LPS i.v.)", "result": "reduced IL-6 concentrations"}]}
